Tests used:
Assay type in all cases: in vivo
[1] = test system: Seeds of Lettuce R. (Super-Jericho); test: Filter paper bioassay with lettuce seeds: germination and early plant development, Minimal Effective Concentration (MEC); conditions: lettuce seeds on filter paper, 0 to 1 mmol/l, visually assessed after 6 days
In short: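 Non-sterilized Super-Jericho lettuce seeds, 10 per dish, on filter paper wetted with aqueous test solution at 0–1 mmol/l. Kept 48 h dark, then 4 days at 6/18 dark/light. MEC is the lowest concentration causing no germination or radicle/shoot malformation by visual scoring at day 6; at least two repeats.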

[2] = test system: Romaine lettuce (Lactuca sativa L.) plants; test: Post-emergence herbicidal activity on potted Romaine lettuce plants (soil or foliar application); conditions: lettuce at 2 to 3 leaves, two weeks after treatment
In short: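 Potted lettuce at the 2-3 leaf stage received compound in 0.1% aqueous Silwet, up to 0.0001%, applied to soil (1 ml/pot) or sprayed on foliage (0.1 ml/pot), 20 plants per concentration. Visual scoring and aboveground wet weight after two weeks; growth inhibition from median weights versus control.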

Amaranth = test: Herbicidal effect on potted weeds, plant development score; conditions: soil application 1 mg/pot, scale 0 (dead plants) to 5 (healthy, as Control)
Procedure: (§1) Weed seeds were sawn in 0.3-liter pots, containing medium-heavy clay-loam soil from organic fields (55% clay, 23% silt, 20% sand, 2% organic matter, pH 7.1). The experiment was conducted in a completely randomized design. Each treatment was replicated 3 times (3 pots). Each compound was typically tested on crops (Corn, Wheat, Soy, Cotton, Oat, Chickpea) and weeds (Amaranth, Chenopodium, Lentils, Sinapis, Silybum).
(§2) The herbicides were applied at dose from 0 (control) to 5 mg/pot. The treatment was performed at the day of sawn (pre-emergence treatment). Then the pots were transferred to a mesh house 24 hours after herbicide application and were sprinkler irrigated to field capacity of the soil. Alternatively, the herbicides were applied on grown plants at stage 2-3 true leaves (post-emergence treatment).
(§3) The plants were grown in the mesh house during the entire experiment. Plant development at 6, 12, 19, 26 and 32 days after application (DAA) were evaluated on a scale of 0 to 5, in which 0 represents dead plants and 5 represents healthy plants similar or not different from Control. In the context of the invention, the herbicidal effect was expressed as a score calculated as an average of assessments of plants vigor, height, and leaf color.

Chenopodium = test: as above; conditions: soil application 1 mg/pot, scale 0 (dead plants) to 5 (healthy, as Control)
Procedure: as §1, §2, §3

Lentils = test: as above; conditions: soil application 1 mg/pot, scale 0 (dead plants) to 5 (healthy, as Control)
Procedure: as §1, §2, §3

Silybum = test: as above; conditions: soil application 1 mg/pot, scale 0 (dead plants) to 5 (healthy, as Control)
Procedure: as §1, §2, §3

Sinapis = test: as above; conditions: soil application 1 mg/pot, scale 0 (dead plants) to 5 (healthy, as Control)
Procedure: as §1, §2, §3

[3] = test system: Seeds of Lettuce R. (Super-Jericho); test: Filter paper bioassay with lettuce seeds: germination, Fully Effective Concentration (FEC); conditions: lowest concentration mostly preventing lettuce seed germination, assessed after 6 days
Excerpt: Materials: Seeds of Lettuce R. (Super-Jericho, non-sterilized) were obtained from Ben Shahar Moshe Ltd., 99% purity. The test compounds listed in the Table 2 below were synthetized de novo or purchased from different vendors.
Filter Paper Bioassays with Lettuce seeds: The protocol is following Bertin et al. 2009 and Movellan et al. 2014 with specified modifications as described below.
Seeds were placed on Whatman no. 1 filter paper (Whatman, Middlesex, U.K.) in Petri dishes (10 seeds per plate) with 2.0 ml of aqueous solution of a test material in concentration ranged from 0 (control) to 1 mmol/l were placed in a tray tilted at 45°. The trays were kept in dark for 48 hours and then transferred to the growth chamber with 6/18 dark/light cycle for 4 days. Each experiment was performed at least with two repeats.
The development of plants' radicle and shoots were visually assessed 6 days after the beginning of the test to determine Fully Effective Concentration (FEC) of a test material. In the context of the invention, FED is defined as the lowest concentration level of a test material that mostly preventing seeds germination.

[4] = test system: Romaine lettuce (Lactuca sativa L.) plants; test: Comparison of NAA and DNAA: growth inhibition of potted Romaine lettuce plants; conditions: two weeks after treatment
Procedure: The tests were performed on Romaine lettuce (Lactuca sativa L.) plants at the stage 2 to 3 leaves. The plants were grown in mini-pots packed with soil, dimensions 2×2×5 cm, one plant per mini-pot. Test compounds were dissolved in 0.1% aqueous solution water solution of Silwet adjuvant. The test material where applied in rate 0 (Control), 0.01, 0.05, and 0.5 mg/pot. The test compounds were applied on soil or foliar with airbrush (0.1 ml per pot). Each concentration was tested on 20 plants. Two weeks after the treatment the herbicidal effects of the respective test material were visually evaluated (aboveground part and roots. Then the aboveground part of the plants was neatly cut and weighed (wet weight) to assess the growth inhibition caused by the test compound. The growth inhibition (GI) was calculated as following: […]
Where Mt and Mc are median wet weight of treated and control plants, respectively.

[5] = foliar application, 0.05 mg/pot
[6] = foliar application, 0.50 mg/pot

Molecule	Score (activity score of Minimal Effective Concentration, MEC) [1]	Score (test material causing more than 85% of Growth Inhibition or irreversible plant damage) ([2]; foliar application)	Score (test material causing more than 85% of Growth Inhibition or irreversible plant damage) ([2]; soil application)	Average Herbicidal Effect, Amaranth (Amaranth; post-emergence)	Average Herbicidal Effect, Amaranth (Amaranth; pre-emergence)	Average Herbicidal Effect, Chenopodium (Chenopodium; post-emergence)	Average Herbicidal Effect, Chenopodium (Chenopodium; pre-emergence)	Average Herbicidal Effect, Lentils (Lentils; post-emergence)	Average Herbicidal Effect, Lentils (Lentils; pre-emergence)	Average Herbicidal Effect, Silybum (Silybum; post-emergence)	Average Herbicidal Effect, Silybum (Silybum; pre-emergence)	Average Herbicidal Effect, Sinapis (Sinapis; post-emergence)	Average Herbicidal Effect, Sinapis (Sinapis; pre-emergence)	FEC (Fully Effective Concentration) [3] [mM]	Herbicidal effect, growth application (%) [4, 5] [%]	Herbicidal effect, growth application (%) [4, 6] [%]	Herbicidal effect, growth application (%) ([4]; soil application, 0.01 mg/pot)	Herbicidal effect, growth application (%) ([4]; soil application, 0.05 mg/pot)	Herbicidal effect, growth application (%) ([4]; soil application, 0.50 mg/pot)
2-(2,5-dichloro-1,3-thiazol-4-yl)acetic acid [compound 5637]	Strong (0.01 mM)	moderate (0.5)	strong (0.01 to 0.05)	3.3	1.5	2.2	1.5	1.7	0.0	1.0	0.5	0.0	3.5	0.050					
2-(6-bromopyridin-2-yl)-2,2-difluoroacetic acid [compound 6617]	Strong (0.01 mM)	moderate (0.5)	strong (0.01 to 0.05)	2.0	4.5	0.5	4.5	1.0	2.0	4.5	5.0	2.0	3.5		88	100	52	92	91
O=C(O)Cc1cc(Cl)sc1Cl [compound 586, 2-(2,5-dichlorothiophen-3-yl) acetic acid]	strong	moderate (0.5)	moderate (0.5)	3.3	2.0		1.5	3.2	0.5	3.7	1.0	0.0	5.0	0.050					
O=C([O-])C(F)(F)c1csc(Cl)n1.[Na+] [compound 5666, sodium(2-chloro-1,3-thiazol-4-yl)(difluoro)acetate]	very strong	strong (0.01 to 0.05)	strong (0.01 to 0.05)	1.2	1.0	1.5	0.0	0.0	0.0	0.0	0.5	0.0	1.0	0.010					
O=C(O)C(F)(F)c1nc(Cl)sc1Cl [compound 5667, 2-(2,5-dichloro-1,3-thiazol-4-yl)-2,2-difluoroacetic acid]	very strong	strong (0.01 to 0.05)	strong (0.01 to 0.05)	3.0	2.0	2.4	0.0	0.0	0.0	0.0	3.5	0.0	2.0		92	100	90	91	100
CCOC(=O)Cc1cccc(Br)n1 [compound 6635, ethyl 2-(6-bromopyridin-2-yl)acetate]	Moderate (0.1 mM)		moderate (0.5)	4.0	4.0	3.0	0.5	0.0	0.0	2.5	3.0	2.0	3.0						
OCC(F)(F)c1cccc(Br)n1 [compound 6643, 2-(6-bromopyridin-2-yl)-2,2-difluoroethan-1-ol]	Moderate (0.1 mM)		moderate (0.5)	1.0	0.0	4.0	3.0	0.0	0.0	2.0	2.5	4.0	4.0						
(2,5-dichlorothiophen-3-yl)(difluoro)acetic acid [compound 5640]	Strong (0.01 mM)	strong (0.01 to 0.05)	strong (0.01 to 0.05)	2.0	4.0		5.0	2.1	0.0	2.0	2.5	0.0		0.100	100	100	5	100	100
ethyl 2-(6-bromopyridin-2-yl)-2,2-difluoroacetate [compound 6640]	Strong (0.01 mM)		moderate (0.5)	4.0		1.0		2.0		3.0		3.0							

From US20240284907A1, “NOVEL DERIVATIVES OF NON-CODED AMINO ACIDS AND THEIR USE AS HERBICIDES” (FortePhest LTD., priority 2021, published 2024)
